Measured values taken from patent publication US8486968B2, “Compounds” (Boehringer Ingelheim International GmbH, priority 2010, dated 2013).

Experiments:
[1] = target: T1, mPGES-1 (Homo sapiens, UniProt O14684); assay: A549 cell-based assay (PGE2 formation, IL-1β stimulated, 50% human serum); set-up: host or cells: A549 cells
T1 sequence (O14684 1-152): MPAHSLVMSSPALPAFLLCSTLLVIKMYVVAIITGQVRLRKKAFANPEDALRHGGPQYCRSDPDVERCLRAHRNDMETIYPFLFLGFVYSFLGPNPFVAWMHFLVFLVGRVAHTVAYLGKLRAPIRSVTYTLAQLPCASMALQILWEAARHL
Method: Although the enzymatic assay is a high throughput assay the disadvantage is that it uses a recombinant protein which is not in its natural environment. Accordingly a cellular assay was established in which a cell line of human origin (A549) expressing the mPGES-1 protein was used. In addition in order to mimic the situation in humans in which compounds can be bound to plasma proteins 50% human serum is added in the assay. By having the combination of testing mPGES-1 in a cellular environment and the presence of 50% human serum this assay has a higher relevance to judge the therapeutic potential of a mPGES-inhibitor than the pure enzyme assay.
A549 cells (ATCC: CCL-185) are grown to about 90% confluence in F-12K Nutrient Mixture (Kaighn's Mod. Gibco) containing 10% FBS in a humified incubator at 37° C. and 5% CO2. Cells were detached using Trypsin-EDTA. A549 cells were seeded in a 384-well collagene plate at a density of 7000 cells/well (50 μl) in F-12 medium containing 1% Penicillin-Streptomycin and 50% human serum. The cells were allowed to attach for 3-4 h. After that the cells were incubated for 20-24 h in F-12k medium supplemented with 50% human serum, 1% Penicillin-Streptomycin and containing IL-1β at a final concentration of 5 ng/ml as well as 10 nM arachidonic acid in the presence of a vehicle or a test compound. The total volume is 100 μl.
Concentrations of PGE2 in the cell free medium (10 μl) were measured using a commercially available HTRF kit from Cisbio (as described above). The PGE2 formation in the absence of test compound was taken as 100%.
IC50 values were derived from at 6-8 point titrations using conventional software.

[2] = target: T1, mPGES-1; assay: mPGES-1 enzyme assay (HTRF detection of PGE2); type: biochemical; set-up: made in house; host or cells: Rosetta E. coli (membrane/microsome fraction)
Method: Microsomes from Rosetta E. coli bacteria expressing recombinant human mPGES-1 can be derived as described below:
Inoculate 5 ml LB with Ampicilin (50 μg/ml) and Chloramphenicol (34 μg/ml) with bacteria from freeze culture. Incubate 8 h at 37° C. with 200 rpm. Thereafter, inoculate 500-1000 ml LB containing Amp and Chloro with the 5 ml on culture and grow to OD640 of 0.8-1.0. Chill the culture to +4° C. before induction. Induce the culture with IPTG at a final concentration of 400 μM. Express the protein at room temp 18-23° C. with 200 rpm shaking over night.
The following steps can be performed on the following day: • 1. Spin down the cells in 250 ml centrifuge flasks for 15 min at 7000 rpm (Beckmann Coulte Avanti J-E centrifuge) • 2. Dissolve the pellet from 250 ml culture in 12.5 ml homogenization buffer • 3. (15 mM Tris-HCL pH8, 1 mM EDTA pH8, […], 2.5 mM GSH, 1 Tablet Protease inhibitor per 50 ml buffer) • 4. Disintegrate the cells by sonication, 5×10 seconds at 48% amplitude of a 750 W sonifier • 5. Add 2.5 ml MgCl2 (100 mM) and DNase 12.5 μl (0.8 mg/ml) and incubate on ice for 30 min • 6. Spin down the bacteria debris and save the supernatant, 7000 rpm for 15 min • 7. Isolate the protein containing membranes in the supernatant by ultracentrifugation 120000×g for 2 hour at 4° C. (Sorvall T880 rotor). • 8. Discard the supernatant and dissolve the pellet in 20 mM Potassium phosphate buffer pH 7.4 (KH2PO4 and K2HPO4) buffer by sonication (5×10 s, 30% of a 50 W sonifier) and aliquot the enzyme and store aliquots at −80° C.
Before each experiment is performed an aliquot of the enzyme is thawed and it can then be dissolved in 0.1 M Potassium phosphate buffer pH7.4 (KH2PO4 and K2HPO4) buffer containing 2.5 mM GSH.
The aim of this assay is the determine the affinity of a test compound for the mPGES-1 enzyme.
47 μl of recombinant human mPGES-1 (˜0.5 μg protein/well) containing microsomal suspension in a buffer containing GSH, (2.5 mmol/L L-Glutathione reduced, dissolved in 0.1 mol/L Phosphat Buffer pH 7.4) is dispensed in a 384-well plate and thereafter 1 μl of the test compound(s) is/are added and incubated for 25 minutes at room temperature. The enzyme reaction is started by the addition of 2 μl PGH2 (final conc. 2 μM) dissolved in water-free Diglyme. After 60 seconds the reaction is terminated by addition of a stop solution containing FeCl2 (10 μL 0.074 mol/l FeCl2). The samples are diluted between 1:25 in PBS (Phosphate Buffered Saline). 10 μl of the diluted samples are transferred to 384-well low volume plate. In order to quantify the amount of PGE2 that has been formed, a homogenous time resolved fluorescent (HTRF) detecting of PGE2 has been performed using a commercially available kit from Cisbio according to the manufactures recommendation. This HTRF-based assay has been described in detail (see: Goedken et al., J Biomol Screen, 2008, 13(7), 619-625). Briefly, the diluted samples are mixed with 5 μl PGE2-d2 conjungate and 5 μl anti-PGE2 cryptate conjungate. After an incubation period of the plates over night, the fluorescence is measured by the use of an appropriate microplate reader.
The fluorescence of Europium cryptate (maxex=307 nm, maxem=620 nm) and d2-PGE2 (maxex=620 nm, maxem=665 nm) are measured.
The extent of the specific HTRF is measured as a ratio of the emission intensity at 665 nm vs. that at 620 nm at an excitation puls of 320 nm. The quantification plate contains also wells with different concentrations of PGE2 as calibration curve for the calculation of the PGE2 concentrations from the HTRF ratio values.
From all mPGES enzyme assay the background is subtracted and the IC50 is calculated over a nonlinear regression with conventional software.

[3] = A549 cells, IL-1β 5 ng/ml, 20-24 h, Table B, read-out: mPGES-1 inhibitory effect, IC50, cell assay
[4] = recombinant human mPGES-1 microsomes, PGH2 2 μM, Table A, read-out: mPGES-1 inhibitory effect, IC50, enzyme assay

Row | IC50 [1, 3] [nM] | IC50 [2, 4] [nM] | IC50 ([1]; Table C comparison of enzym and cell IC50, A549 cells, read-out: Cell IC50) [nM] | IC50 ([2]; Table C comparison of enzym and cell IC50, read-out: Enzym IC50) [nM] | SMILES
1 | 3 | 3 | – | – | CN(Cc1nccn1C)c1nc2c(cc1C(=O)N[C@H]1CC[C@H](C(F)(F)F)CC1)nc(Nc1c(Cl)ccc(CNC(=O)C(C)(C)C)c1Cl)n2C [Example 16]
2 | 58 | 9 | – | – | CN(CC(F)F)c1nc2c(cc1C(=O)N[C@H]1CC[C@H](C(F)(F)F)CC1)nc(Nc1cc(CNC(=O)C3(C(F)(F)F)CC3)ccc1Cl)n2C [Example 5]
3 | 10 | 2 | – | – | CC(C)(C)C(=O)NCc1cc(F)c(Cl)c(Nc2nc3cc(C(=O)N[C@H]4CC[C@H](C(F)(F)F)CC4)c(N4CCC(F)CC4)nc3[nH]2)c1Cl [Example 15, N-(trans-4-Trifluoromethyl-cyclohexyl)-2-{2,6-dichloro-5-fluoro-3-[(2,2-dimethyl-propionylamino)-methyl]-phenylamino}-5-[4-fluoro-piperidinyl]-3H-imidazo[4,5-b]pyridine-6-carboxamide]
4 | – | – | 72 | 2 | Cn1c(Nc2c(F)cccc2Cl)nc2cc(C(=O)Nc3ccc(Br)cc3)c(OCC(F)F)nc21 [reference compound]
5 | 2 | 1 | – | – | Cn1c(Nc2c(Cl)ccc(CNC(=O)C(C)(C)C)c2Cl)nc2cc(C(=O)Nc3ccc(F)c(Cl)c3)c(N3CCC(C(F)(F)F)CC3)nc21 [Example 41]
6 | 5 | 1 | – | – | Cn1c(Nc2c(Cl)ccc(CNC(=O)C(C)(C)C)c2Cl)nc2cc(C(=O)Nc3ccc(OC(F)(F)F)cc3)c(N3CCC(C(F)(F)F)CC3)nc21 [Example 24, N-(4-Trifluoromethoxyphenyl)-2-{2,6-dichloro-3-[(2,2-dimethyl-propionylamino)-methyl]-phenylamino}-5-[4-trifluoromethyl-piperidinyl]-3-methyl-3H-imidazo[4,5-b]pyridine-6-carboxamide]
7 | 8 | < 1 | – | – | Cn1c(Nc2c(Cl)ccc(CNC(=O)C(C)(C)C)c2Cl)nc2cc(C(=O)NCC3CC3)c(N3CCC(C(F)(F)F)CC3)nc21 [Example 46]
8 | 2 | 2 | – | – | Cn1c(Nc2c(Cl)ccc(CNC(=O)C(C)(C)C)c2Cl)nc2cc(C(=O)N[C@H]3CC[C@H](C(F)(F)F)CC3)c(N3CC[C@@H](F)C3)nc21 [Example 18]
9 | 11 | 4 | – | – | CC(C)(C)C(=O)NCc1ccc(Cl)c(Nc2nc3cc(C(=O)N[C@H]4CC[C@H](C(F)(F)F)CC4)c(N4CC[C@@H](F)C4)nc3[nH]2)c1Cl [Example 7]
10 | 6 | 2 | – | – | CC(C)(C)C(=O)NCc1ccc(Cl)c(Nc2nc3cc(C(=O)N[C@H]4CC[C@H](C(F)(F)F)CC4)c(N4CCC(F)(F)C4)nc3[nH]2)c1Cl [Example 9]
11 | 10 | 2 | – | – | Cn1c(Nc2c(Cl)ccc(CNC(=O)C(C)(C)C)c2Cl)nc2cc(C(=O)NCC(F)(F)C(F)(F)F)c(N3CCC(C(F)(F)F)CC3)nc21 [Example 34]
12 | 6 | 5 | – | – | Cn1c(Nc2c(Cl)ccc(CNC(=O)C(C)(C)C)c2Cl)nc2cc(C(=O)NCc3ncccc3C(F)(F)F)c(N3CCC(C(F)(F)F)CC3)nc21 [Example 43]
13 | 12 | 4 | – | – | CC(NC(=O)c1cc2nc(Nc3c(Cl)ccc(CNC(=O)C(C)(C)C)c3Cl)n(C)c2nc1N1CCC(C(F)(F)F)CC1)c1cccs1 (stereo not drawn) [Example 45]
14 | 8 | 1 | – | – | CN(CC(F)F)c1nc2[nH]c(Nc3c(Cl)ccc(CNC(=O)C(C)(C)C)c3Cl)nc2cc1C(=O)NC1CCC(F)(F)CC1 [Example 10]
15 | 20 | 3 | – | – | CC(NC(=O)c1cc2nc(Nc3c(Cl)ccc(CNC(=O)C(C)(C)C)c3Cl)n(C)c2nc1N1CCC(C(F)(F)F)CC1)C(F)(F)F (stereo not drawn) [Example 31]
16 | 6 | 2 | – | – | Cn1c(Nc2c(Cl)ccc(CNC(=O)C(C)(C)C)c2Cl)nc2cc(C(=O)N[C@H](c3ccccc3)C(F)(F)F)c(N3CCC(C(F)(F)F)CC3)nc21 [Example 36]
17 | 8 | 3 | – | – | Cn1c(Nc2c(Cl)ccc(CNC(=O)C(C)(C)C)c2Cl)nc2cc(C(=O)NC3(c4ccc(F)cc4)CC3)c(N3CCC(C(F)(F)F)CC3)nc21 [Example 37]
18 | 15 | 3 | – | – | CN(CC1(C)COC1)c1nc2c(cc1C(=O)N[C@H]1CC[C@H](C(F)(F)F)CC1)nc(Nc1c(Cl)ccc(CNC(=O)C(C)(C)C)c1Cl)n2C [Example 22]
19 | 2 | 3 | – | – | CC(C)(C)C(=O)NCc1ccc(Cl)c(Nc2nc3cc(C(=O)N[C@H]4CC[C@H](C(F)(F)F)CC4)c(N4CCC(F)CC4)nc3[nH]2)c1Cl [Example 3, N-(trans-4-Trifluoromethyl-cyclohexyl)-2-{2,6-dichloro-3-[(2,2-dimethyl-propionylamino)-methyl]-phenylamino}-5-[4-fluoro-piperidinyl]-3H-imidazo[4,5-b]pyridine-6-carboxamide]
20 | 8 | 2 | – | – | Cn1c(Nc2c(Cl)ccc(CNC(=O)C(C)(C)C)c2Cl)nc2cc(C(=O)NCCCC(F)(F)F)c(N3CCC(C(F)(F)F)CC3)nc21 [Example 33]

Row | SMILES | IC50 [1, 3] [nM] | IC50 [2, 4] [nM] | IC50 ([1]; Table C comparison of enzym and cell IC50, A549 cells, read-out: Cell IC50) [nM] | IC50 ([2]; Table C comparison of enzym and cell IC50, read-out: Enzym IC50) [nM]
21 | CC(C)(C)OC(=O)NCc1cc(F)c(Cl)c(Nc2nc3cc(C(=O)N[C@H]4CC[C@H](C(F)(F)F)CC4)c(N4CCC(F)CC4)nc3[nH]2)c1Cl [Example 14, N-(trans-4-Trifluoromethyl-cyclohexyl)-2-{2,6-dichloro-5-fluoro-3-[(tert.butoxycarbonylamino)-methyl]-phenylamino}-5-[4-fluoro-piperidinyl]-3H-imidazo[4,5-b]pyridine-6-carboxamide] | 86 | 35 | – | –
